Columns and labels:
[1] = test system: mouse colorectal cancer cell line CT26; experiment: Test Example 3: mPGES-1 inhibitor and anti-mouse PD-1 antibody in combination in allograft model of mouse colorectal cancer cell line CT26; format: in vivo; conditions: female BALB/c mouse, tumor volume on 21st day
Text: (§1) On the day of transplantation, after the culture supernatant was removed, CT26 was washed with HBSS and collected. Collected CT26 was suspended in HBSS and used as cells for transplantation.
Under anesthesia, 3.0x10^5 cells for transplantation were subcutaneously transplanted into the right-hand side abdomen of each female BALB/c mouse.
(§2) The anti-mouse PD-1 antibody was intraperitoneally administered to the mice of the single therapy group of the anti-mouse PD-1 antibody and the combination therapy group, at a dosage of 100 µg/individual, twice a week after transplantation, from the 7th day of transplantation to the 20th day of transplantation.
Regarding the tumor volume (mm^3), the length and width of a tumor were measured by using an electronic caliper, and the tumor volume was calculated by the following formula.

[2] = test system: mouse colorectal cancer cell line CT26; experiment: Test Example 4: mPGES-1 inhibitor and anti-mouse CTLA-4 antibody in combination in allograft model of mouse colorectal cancer cell line CT26; format: in vivo; conditions: female BALB/c mouse
Text: as §1
Under anesthesia, 3.0×10^5 cells for transplantation were subcutaneously transplanted into the right-hand side abdomen of each female BALB/c mouse.
as §2, with “anti-mouse CTLA-4” for “anti-mouse PD-1”, “group with” for “group of”, “combination” for “combination therapy”, “the 8th” for “the 7th”
Regarding the tumor volume (mm^3), the length and width of a tumor were measured by using an electronic caliper, and the tumor volume was calculated by the following formula

[3] = in combination with anti-mouse PD-1 antibody (100 µg/individual i.p. twice a week), compound 100 mg/kg orally twice a day, 7th to 20th day
[4] = used solely, 100 mg/kg (as free form) orally twice a day, 7th to 20th day of transplantation
[5] = in combination with anti-mouse CTLA-4 antibody (100 µg/individual i.p. twice a week), compound 100 mg/kg orally twice a day, 8th to 20th day
[6] = used solely, 100 mg/kg (as free substance) orally twice a day, 8th to 20th day of transplantation

| Compound | tumor growth (tumor volume) [1, 3] | tumor growth (tumor volume) [1, 4] | tumor growth (tumor volume) [2, 5] | tumor growth (tumor volume) [2, 6] |
| --- | --- | --- | --- | --- |
| Cc1c(Cl)cccc1NC(=O)c1cc(NC(=O)c2ccccc2C(F)(F)F)cc2[nH]c(C3(C(F)(F)F)CC3)nc12 [compound 2, N-(3-chloro-2-methylphenyl)-2-[1-(trifluoromethyl)cyclopropyl]-6-({[2-(trifluoromethyl)phenyl]carbonyl}amino)-1H-benzimidazole-4-carboxamide] | tumor growth was suppressed | did not suppress tumor growth | tumor growth was suppressed | did not suppress tumor growth |
| COCc1nc2c(C(=O)Nc3cccc(Cl)c3C)cc(NC(=O)c3ccccc3C(F)(F)F)cc2[nH]1.Cc1ccc(S(=O)(=O)O)cc1 [compound 1, N-(3-chloro-2-methylphenyl)-2-(methoxymethyl)-6-({[2-(trifluoromethyl)phenyl]carbonyl}amino)-1H-benzimidazole-4-carboxamide 4-methylbenzenesulfonate] | tumor growth was suppressed | did not suppress tumor growth | tumor growth was suppressed | did not suppress tumor growth |

— US20230040402A1, “ANTITUMOR DRUG FOR USE IN COMBINATION WITH IMMUNE CHECKPOINT INHIBITOR” (NIPPON SHINYAKU CO., LTD., priority 2019, published 2023)
